Measured values from patent US10538555B2, “Macrocyclic inhibitors of the PD-1/PD-L1 and CD80(B7-1)/PD-L1 protein/protein interactions” (BRISTOL-MYERS SQUIBB COMPANY, priority 2014, dated 2020).
pIC50: −log10 of the molar value. Read-outs that look alike come from different tables or passages of the source. *1 amine or outer side, *2 acyl side, *3 side chain or, on linkers, in order; H or OH if unused. Where a SMILES comes first, the peptide text is derived from it. Bridges are numbered along the chain shown (N, C = ends). [ ]: non-standard residue; d: D form. ξ: configuration not given here. X5 = O=C(O)CC[C@H](N[*:1])C(=O)C1C[C@H](O)C[C@H]1C(=O)[*:2]; Phe(3,4,5-F3) = N[C@@H](Cc1cc(F)c(F)c(F)c1)C(=O)O; Phe(3,4-F2) = N[C@@H](Cc1ccc(F)c(F)c1)C(=O)O; NMePhe(4-F) = CN[C@@H](Cc1ccc(F)cc1)C(=O)O; Phe(4-Cl) = N[C@@H](Cc1ccc(Cl)cc1)C(=O)O; Phe(4-F) = N[C@@H](Cc1ccc(F)cc1)C(=O)O; d(cisHyp) = O=C(O)[C@H]1C[C@@H](O)CN1; NMeY = CN[C@@H](Cc1ccc(O)cc1)C(=O)O; NMeIle(3ξ) = CCC(C)[C@H](NC)C(=O)O; Hyp = O=C(O)[C@@H]1C[C@@H](O)CN1; NMeF = CN[C@@H](Cc1ccccc1)C(=O)O; X1 = O=C([C@H]1COCCN1[*:1])[*:2]; dNMeF = CN[C@H](Cc1ccccc1)C(=O)O; dHyp = O=C(O)[C@H]1C[C@H](O)CN1; NMehSer = CN[C@@H](CCO)C(=O)O; NMeNle = CCCC[C@H](NC)C(=O)O; dPip = O=C(O)[C@H]1CCCCN1; hSer = N[C@@H](CCO)C(=O)O; NMeA = CN[C@@H](C)C(=O)O; Orn = NCCC[C@H](N)C(=O)O; Dab = NCC[C@H](N)C(=O)O; Dap = NC[C@H](N)C(=O)O; ξC = NC(CS)C(=O)O

Target: T1, Human PD-L1/PD-1 (Homo sapiens, UniProt Q9NZQ7)
T1 construct: TVMV protease cleavage site (C); made in house; host or cells: HEK293T cells
Assay: HTRF Human PD-L1/PD-1 binding assay (PD-1-Ig/PD-L1-His)
Conditions: PD-L1-His 10 nM, PD-1-Ig 20 nM
Outline: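 Inhibitors were preincubated 15 min with human PD-L1(18-239)-His (10 nM final), then PD-1(25-167)-Ig (20 nM final) was added for 15 min in dPBS/0.1% BSA/0.05% Tween-20. Eu-cryptate anti-Ig (1 nM) and APC anti-His (20 nM) were added; 665/620 nm ratio read after 30 min.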

[1] = class symbol, read-out: HTRF Human PD-L1/PD-1 Binding Assay IC50 Range

T1 sequence (Q9NZQ7 with tags, fused parts or gaps): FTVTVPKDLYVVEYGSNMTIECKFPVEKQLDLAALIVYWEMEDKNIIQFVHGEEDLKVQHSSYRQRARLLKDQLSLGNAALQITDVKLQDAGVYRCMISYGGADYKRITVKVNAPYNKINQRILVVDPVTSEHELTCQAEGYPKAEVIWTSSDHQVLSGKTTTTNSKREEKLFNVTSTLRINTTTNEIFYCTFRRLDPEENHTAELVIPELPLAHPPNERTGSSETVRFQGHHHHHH

With `CCCC[C@H]1C(=O)N2C[C@@H](O)C[C@@H]2C(=O)N[C@@H](CC(=O)O)C(=O)N[C@@H](C(C)C)C(=O)N(C)[C@H](Cc2ccccc2)C(=O)N[C@@H](Cc2ccc(O)cc2)C(=O)N2C[C@@H](O)C[C@@H]2C(=O)N[C@@H](Cc2c[nH]c3ccccc23)C(=O)N[C@@H](Cc2ccc(O)cc2)C(=O)N[C@@H](CC(C)C)C(=O)N[C@H](C(=O)NCC(N)=O)CSCC(=O)N[C@@H](Cc2ccc(F)c(F)c2)C(=O)N(C)[C@@H](Cc2ccccc2)C(=O)N1C` [Example 9228] ({CH2CO}-[Phe(3,4-F2)][NMeF][NMeNle][dHyp]DV[dNMeF]Y[dHyp]WYLCG-NH2; thioether N-13) the pIC50 [1] was 7.00 to 8.00.
`CCCC[C@H]1C(=O)N2CCC[C@@H]2C(=O)N[C@@H](CC(=O)O)C(=O)N[C@@H](C(C)C)C(=O)N(C)[C@@H](C(C)CC)C(=O)N[C@@H](Cc2ccc(O)cc2)C(=O)N2CCC[C@@H]2C(=O)N[C@@H](Cc2c[nH]c3ccccc23)C(=O)N[C@@H](Cc2ccc(O)cc2)C(=O)N[C@@H](CC(C)C)C(=O)N[C@H](C(=O)NCC(N)=O)CSCC(=O)N[C@@H](Cc2ccc(F)cc2)C(=O)N(C)[C@@H](Cc2ccccc2)C(=O)N1C` (some centres unmarked) [Example 9257] ({CH2CO}-[Phe(4-F)][NMeF][NMeNle][dP]DV[NMeIle(3ξ)]Y[dP]WYLCG-NH2; thioether N-13) gave a pIC50 [1] of 5.00 to 6.00.
Compound `CCCC[C@H]1C(=O)N2CCC[C@@H]2C(=O)N[C@@H](CC(=O)O)C(=O)N[C@@H](C(C)C)C(=O)N(C)[C@@H](Cc2ccccc2)C(=O)N[C@@H](CCN)C(=O)N2CCOC[C@@H]2C(=O)N[C@@H](Cc2c[nH]c3ccccc23)C(=O)N[C@@H](Cc2ccc(O)cc2)C(=O)N[C@@H](CCN)C(=O)N[C@H](C(=O)NCC(N)=O)CSCC(=O)N[C@@H](Cc2cc(F)c(F)c(F)c2)C(=O)N(C)[C@@H](Cc2ccc(O)cc2)C(=O)N1C` [Example 10623] ({CH2CO}-[Phe(3,4,5-F3)][NMeY][NMeNle][dP]DV[NMeF][Dab][X1]WY[Dab]CG-NH2; thioether N-13) has a pIC50 [1] of 8.00 to 9.00.
With `CCCC[C@H]1C(=O)N2CCC[C@@H]2C(=O)N[C@@H](CC(=O)O)C(=O)N[C@@H](C(C)C)C(=O)N(C)[C@@H](Cc2ccccc2)C(=O)N[C@@H](CCC(=O)O)C(=O)N2C[C@H](O)C[C@@H]2C(=O)N[C@@H](Cc2c[nH]c3ccccc23)C(=O)N[C@@H](Cc2ccc(O)cc2)C(=O)N[C@@H](CC(C)C)C(=O)N[C@H](C(=O)NCC(N)=O)CSCC(=O)N[C@@H](Cc2cc(F)c(F)c(F)c2)C(=O)N(C)[C@@H](Cc2ccc(O)cc2)C(=O)N1C` [Example 10629] ({CH2CO}-[Phe(3,4,5-F3)][NMeY][NMeNle][dP]DV[NMeF]E[d(cisHyp)]WYLCG-NH2; thioether N-13) the pIC50 [1] was 7.00 to 8.00.
For `CCCC[C@H]1C(=O)N2C[C@H](O)C[C@@H]2C(=O)N[C@@H](CC(=O)O)C(=O)N[C@@H](C(C)C)C(=O)N(C)[C@@H](Cc2ccccc2)C(=O)N[C@@H](CC(=O)O)C(=O)N2C[C@H](O)C[C@@H]2C(=O)N[C@@H](Cc2c[nH]c3ccccc23)C(=O)N[C@@H](Cc2ccc(O)cc2)C(=O)N[C@@H](CN)C(=O)N[C@H](C(=O)NCC(N)=O)CSCC(=O)N[C@@H](Cc2cc(F)c(F)c(F)c2)C(=O)N(C)[C@@H](Cc2ccccc2)C(=O)N1C` [Example 9348] ({CH2CO}-[Phe(3,4,5-F3)][NMeF][NMeNle][d(cisHyp)]DV[NMeF]D[d(cisHyp)]WY[Dap]CG-NH2; thioether N-13), the pIC50 [1] was 7.00 to 8.00.
`CCCC[C@H]1C(=O)N2CCC[C@@H]2C(=O)N[C@@H](CC(=O)O)C(=O)N[C@@H](C(C)C)C(=O)N(C)[C@@H](Cc2ccccc2)C(=O)N[C@@H](CCC(=O)O)C(=O)N2CCOC[C@@H]2C(=O)N[C@@H](Cc2c[nH]c3ccccc23)C(=O)N[C@@H](Cc2ccc(O)cc2)C(=O)N[C@@H](CCN)C(=O)N[C@H](C(=O)NCC(N)=O)CSCC(=O)N[C@@H](Cc2cc(F)c(F)c(F)c2)C(=O)N(C)[C@@H](Cc2ccc(F)cc2)C(=O)N1C` [Example 10605] ({CH2CO}-[Phe(3,4,5-F3)][NMePhe(4-F)][NMeNle][dP]DV[NMeF]E[X1]WY[Dab]CG-NH2; thioether N-13) gave a pIC50 [1] of 8.00 to 9.00.
With `CCCC[C@H]1C(=O)N2CCC[C@@H]2C(=O)N[C@@H](CC(=O)O)C(=O)N[C@@H](C(C)C)C(=O)N(C)[C@@H](CCOC)C(=O)N[C@@H](Cc2ccc(O)cc2)C(=O)N2CCCC[C@@H]2C(=O)N[C@@H](Cc2c[nH]c3ccccc23)C(=O)N[C@@H](Cc2ccc(O)cc2)C(=O)N[C@@H](CCCN)C(=O)N[C@H](C(=O)NCC(N)=O)CSCC(=O)N[C@@H](Cc2ccc(F)cc2)C(=O)N(C)[C@@H](Cc2ccccc2)C(=O)N1C` [Example 9222] ({CH2CO}-[Phe(4-F)][NMeF][NMeNle][dP]DV[NMehSer](Me)Y[dPip]WY[Orn]CG-NH2; thioether N-13) the pIC50 (read-out: HTRF Human PD-L1/PD-1 Binding Assay IC50) was 6.84.
`CCCC[C@H]1C(=O)N[C@@H](CC(N)=O)C(=O)N2CCC[C@H]2C(=O)N[C@@H](CO)C(=O)N[C@@H](CCO)C(=O)N2C[C@H](O)C[C@H]2C(=O)N[C@@H](Cc2c[nH]c3ccccc23)C(=O)N[C@@H](CCN)C(=O)N[C@@H](Cc2c[nH]c3ccccc23)C(=O)N(C)[C@@H](C)C(=O)N(C)[C@@H](C)C(=O)N[C@@H](CCCNC(=N)N)C(=O)NC(C(=O)NCC(N)=O)CSCC(=O)N[C@@H](Cc2ccc(O)cc2)C(=O)N1C` (some centres unmarked) [Example 10200] ({CH2CO}-Y[NMeNle]NPS[hSer][Hyp]W[Dab]W[NMeA][NMeA]R[ξC]G-NH2; thioether N-14) showed a pIC50 [1] of 5.00 to 6.00.
Compound `CCCC[C@H]1C(=O)N2C[C@H](O)C[C@@H]2C(=O)N[C@@H](CC(=O)O)C(=O)N[C@@H](C(C)C)C(=O)N(C)[C@@H](Cc2ccccc2)C(=O)N[C@@H](CCC(N)=O)C(=O)N2C[C@H](O)C[C@@H]2C(=O)N[C@@H](Cc2c[nH]c3ccccc23)C(=O)N[C@@H](Cc2ccc(O)cc2)C(=O)N[C@@H](CC(=O)O)C(=O)N[C@H](C(=O)NCC(N)=O)CSCC(=O)N[C@@H](Cc2cc(F)c(F)c(F)c2)C(=O)N(C)[C@@H](Cc2ccccc2)C(=O)N1C` [Example 9358] ({CH2CO}-[Phe(3,4,5-F3)][NMeF][NMeNle][d(cisHyp)]DV[NMeF]Q[d(cisHyp)]WYDCG-NH2; thioether N-13) has a pIC50 [1] of 7.00 to 8.00.
`CCCC[C@H]1C(=O)N(C)[C@@H](CCCC)C(=O)N[C@@H](CCCNC(=N)N)C(=O)NC(C(=O)NCC(N)=O)CSCC(=O)N[C@@H](Cc2ccc(O)cc2)C(=O)N(C)[C@@H](C)C(=O)N[C@@H](CC(N)=O)C(=O)N2CCC[C@H]2C(=O)N[C@@H](CC(N)=O)C(=O)N[C@@H](CC(C)C)C(=O)N2C[C@H](O)C[C@H]2C(=O)N[C@@H](Cc2c[nH]c3ccccc23)C(=O)N[C@@H](CCO)C(=O)N[C@@H](Cc2c[nH]c3ccccc23)C(=O)N1C` (some centres unmarked) [Example 9130] ({CH2CO}-Y[NMeA]NPNL[Hyp]W[hSer]W[NMeNle][NMeNle]R[ξC]G-NH2; thioether N-14) gave a pIC50 [1] of 8.00 to 9.00.
With `CCCC[C@H]1C(=O)N(C)[C@@H](CCCC)C(=O)N[C@@H](CCCNC(=N)N)C(=O)N[C@H](C(=O)NCC(N)=O)CSCC(=O)N[C@@H](Cc2ccc(Cl)cc2)C(=O)N(C)[C@@H](C)C(=O)N[C@@H](CC(N)=O)C(=O)N2CCC[C@H]2C(=O)N[C@@H](Cc2cnc[nH]2)C(=O)N[C@@H](CCC(=O)O)C(=O)C2C[C@H](O)C[C@H]2C(=O)N[C@@H](Cc2c[nH]c3ccccc23)C(=O)N[C@@H](CCN)C(=O)N[C@@H](Cc2c[nH]c3ccccc23)C(=O)N1C` (some centres unmarked) [Example 7079] ({CH2CO}-[Phe(4-Cl)][NMeA]NPH[X5]W[Dab]W[NMeNle][NMeNle]RCG-NH2; thioether N-13) the pIC50 [1] was 8.00 to 9.00.
